Reference: publication PMC6486608, “A cell-penetrating peptide blocks Toll-like receptor-mediated downstream signaling and ameliorates autoimmune and inflammatory diseases in mice” (Experimental & Molecular Medicine, 2019)
Ends that are not written are not given here.

T1: TLR4 TIR domain BB loop peptide (Homo sapiens)
T1 chain: RDFIPGVAIAA


Assays:
[1] = system: TLR4 (HEK-Blue hTLR4 cells); assay: SEAP activity (NF-κB), HEK-Blue hTLR4, LPS; assay type: cell-based; conditions: n ≥ 3; for LPS-induced NF-κB activity (SEAP), peptides in the absence of CPP: not conjugated with CPP
Procedure: (§1) HEK-Blue-hTLR4 cells were seeded at a density of 2 × 10^5 cells/well and grown overnight in 24-well plates (BD Biosciences). The next day, the supernatant was removed, and the medium was replaced with fresh medium. Aliquots of supernatants (200 µl) from the treated cells were transferred to microcentrifuge tubes and heated for 10 min at 65 °C on a heating block (FINEPCR Co., Seoul, Korea). The supernatants were then transferred into new 96-well plates (BD Biosciences), and SEAP production was quantified using the HEK-Blue detection kit (InvivoGen). HEK-Blue IL-1R cells were seeded at a density of 2 × 10^5 cells/well and grown in 24-well plates (BD Biosciences) overnight, and SEAP production was measured by means of QUANTI-Blue (InvivoGen). Absorbance was measured on a microplate reader (spectrophotometry system; Molecular Devices Inc., Silicon Valley, CA, USA) or a Cytation 5 Cell Imaging Multi-Mode Reader (Bio-Tek Instruments, Winooski, VT, USA) at 620 nm.
The TLR4-mediated response to LPS leads to a direct interaction between the TIR domains of TIRAP and MyD88, resulting in the subsequent activation of the MyD88-dependent downstream cascade. On the other hand, LPS-induced activation of TLR4 can cause the interaction between the TIR domains of TRAM and TRIF, which thereafter initiates MyD88-independent downstream signaling. Multiple peptides were designed from the TIR domain of TIRAP to possibly target the TIR domain of TLR4. […] The inhibitory effects of the peptides (TIP1 and TIP2) in the absence of CPP were evaluated by measuring the SEAP activity in HEK-Blue hTLR4 cells. […] To evaluate the specific binding of TIP1 to TLRs, we measured the NF-κB activity and protein expression of NF-κB and MAPKs by the SEAP activity assay and western blotting in HEK-Blue IL-1R cells. […]

[2] = system: TLR signaling (RAW 264.7 cells); assay: TNF-α ELISA, RAW 264.7, peptides not conjugated with CPP; assay type: cell-based, mouse; conditions: TIP1 without CPP 12.5, 25, and 50 µM (Fig. 2l); Poly(I:C) 24 h (Supplementary Fig. 1c)
Procedure: RAW 264.7, THP1, and mBMDM cells were seeded at a density of 2 × 10^5 cells/well in 96-well plates (BD Biosciences) or at 5 × 10^5 cells/well in 24-well plates (BD Biosciences) and were grown overnight. After 24 h of treatment, IFN-β secretion was measured by means of the LEGEND MAX Mouse IFN-β precoated ELISA Kit (BioLegend), IL-6 secretion was assessed by a Mouse IL-6 ELISA MAX Deluxe (BioLegend) or Mouse IL-6 Platinum ELISA (eBioscience), TNF-α production was assessed using the Mouse TNF alpha ELISA Ready-SET-Go! kit (eBioscience), and the IL-1β cytokine level was measured with the Mouse or Human IL-1β ELISA Ready-SET-Go! kit (eBioscience). hBMNCs were seeded at a density of 4 × 10^4/well in 96-well plates (BD Biosciences) and then grown overnight. After 24 h of treatment, the secretion levels of IL-6 and TNF-α were assessed using Human IL-6 ELISA MAX Deluxe (BioLegend) and Human TNF alpha ELISA MAX Deluxe (BioLegend), respectively. The plates were then analyzed on a microplate spectrophotometer system (Molecular Devices) at the appropriate wavelength.
Fig. 2 Inhibitory effects of TIP1 on TLR signaling pathways. a Cell viability was measured by the MTT assay upon the treatment of RAW 264.7 cells with various concentrations of TIP1 (12.5, 25, or 50 µM) for 24 h. […] The secretion of IFN-β was measured by an ELISA. q hPBMCs were treated with TIP1 in the presence or absence of LPS. […]

[3] = system: IL-1R (HEK-Blue IL-1R cells); assay: SEAP activity (NF-κB), HEK-Blue IL-1R, IL-1β; assay type: cell-based; conditions: peptide 1 h before IL-1β (300 pg/ml), 24 h; n ≥ 3
Procedure: as §1
The TLR4-mediated response to LPS leads to a direct interaction between the TIR domains of TIRAP and MyD88, resulting in the subsequent activation of the MyD88-dependent downstream cascade. […] The inhibitory effects of the peptides (TIP1 and TIP2) in the absence of CPP were evaluated by measuring the SEAP activity in HEK-Blue hTLR4 cells. […]

[4] = target: T1, TLR4 TIR domain BB loop peptide; assay: SPR

Kd [4] | Molecule | LPS-induced NF-κB activity (SEAP), peptides in the absence of CPP [1] | inhibitory effect on TNF-α secretion after removal of CPP [2] | IL-1β-induced NF-κB activity (SEAP) [3] | LPS-induced SEAP activity (NF-κB) ([1]; CPP-conjugated peptide, 12.5 to 50 μM, peptide 1 h before LPS, 24 h)
 | SHCRVLLI [TIP1 without CPP, TIP1 peptide not conjugated with CPP] | neither peptide significantly inhibited NF-κB activity | loss of the inhibitory effect |  | 
 | TIPLLS [TIP2 without CPP, TIP2 peptide not conjugated with CPP] | neither peptide significantly inhibited NF-κB activity | loss of the inhibitory effect |  | 
 | TIPLLS [TIP2, TIPLLS from the TIR domain of TIRAP, conjugated in tandem to a cell-penetrating peptide (…) at N terminus] |  |  | did not exert any significant inhibitory effects | did not hinder LPS-induced NF-κB activity
40.2 µM | RQIKIWFQNRRMKWKKSHCRVLLI (also: biotinylated and immobilized) [TIP1 (TIRAP TIR-derived decoy peptide with N-terminal antennapedia CPP)] |  |  |  | 
